Assay [1] has as its target T1, human CB2 receptor (Homo sapiens, UniProt P34972).
T1 construct: purchased BioSignal
The assay can be described thus: hCB2 receptor binding (3H-CP55,940 displacement). The protocol:
(§1) Human CB1 receptor from Receptor Biology (hCB1) or human CB2 receptor from BioSignal (hCB2) membranes are thawed at 37° C., passed 3 times through a 25-gauge blunt-end needle, diluted in the cannabinoid binding buffer (50 mM Tris, 2.5 mM EDTA, 5 mM MgCl2, and 0.5 mg/mL BSA fatty acid free, pH 7.4) and aliquots containing the appropriate amount of protein are distributed in 96-well plates. The IC50 of the compounds of the invention at hCB1 and hCB2 are evaluated from 10-point dose-response curves done with ^3H-CP55,940 at 20000 to 25000 dpm per well (0.17-0.21 nM) in a final volume of 300 μl. The total and non-specific binding are determined in the absence and presence of 0.2 μM of HU210 respectively. The plates are vortexed and incubated for 60 minutes at room temperature, filtered through Unifilters GF/B (presoaked in 0.1% polyethyleneimine) with the Tomtec or Packard harvester using 3 mL of wash buffer (50 mM Tris, 5 mM MgCl2, 0.5 mg BSA pH 7.0). The filters are dried for 1 hour at 55° C. The radioactivity (cpm) is counted in a TopCount (Packard) after adding 65 μl/well of MS-20 scintillation liquid.
(§2) Based on the above assays, the dissociation constant (Ki) for a particular compound of the invention towards a particular receptor is determined using the following equation: Ki=IC50/(1+[rad]/Kd), […]

Assay [2] deals with T2, human CB1 receptor (Homo sapiens, UniProt P21554).
T2 construct: purchased Receptor Biology
T2 sequence (P21554 whole entry): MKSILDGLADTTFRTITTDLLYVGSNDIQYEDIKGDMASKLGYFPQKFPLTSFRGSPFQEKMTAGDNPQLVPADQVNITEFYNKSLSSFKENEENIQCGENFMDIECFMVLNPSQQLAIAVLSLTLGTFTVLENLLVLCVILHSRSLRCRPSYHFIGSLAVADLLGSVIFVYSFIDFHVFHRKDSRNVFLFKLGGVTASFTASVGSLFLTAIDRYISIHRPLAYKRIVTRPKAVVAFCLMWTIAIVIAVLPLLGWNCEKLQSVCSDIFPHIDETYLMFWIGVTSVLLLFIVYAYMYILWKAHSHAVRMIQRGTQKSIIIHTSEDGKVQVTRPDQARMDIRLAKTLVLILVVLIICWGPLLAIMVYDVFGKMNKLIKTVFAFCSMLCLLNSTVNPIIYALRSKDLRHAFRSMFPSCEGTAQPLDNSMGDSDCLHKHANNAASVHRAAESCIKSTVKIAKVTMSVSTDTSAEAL
The assay can be described thus: hCB1 receptor binding (3H-CP55,940 displacement). The following applies: hCB1 membranes, 3H-CP55,940 radioligand; Ki=IC50/(1+[rad]/Kd); read-out: Ki towards human CB1 receptors. How it is done:
as §1, §2

T1 sequence (P34972 whole entry): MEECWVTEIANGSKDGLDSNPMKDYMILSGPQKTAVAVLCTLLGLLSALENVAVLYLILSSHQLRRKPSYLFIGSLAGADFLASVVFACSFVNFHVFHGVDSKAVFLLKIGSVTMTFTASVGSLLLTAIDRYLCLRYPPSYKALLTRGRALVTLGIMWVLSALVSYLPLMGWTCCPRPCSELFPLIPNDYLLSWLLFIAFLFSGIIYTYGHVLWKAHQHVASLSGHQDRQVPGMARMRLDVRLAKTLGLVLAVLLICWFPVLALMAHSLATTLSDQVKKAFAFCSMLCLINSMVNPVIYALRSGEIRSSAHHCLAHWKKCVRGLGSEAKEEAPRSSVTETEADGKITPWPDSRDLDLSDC

Turning to `CC(C)(C)c1nc2cc(C(=O)N(CC(F)(F)F)CC(F)(F)F)ccc2n1CC1CCCCC1` [compound 1, 2-tert-Butyl-1-(cyclohexylmethyl)-N,N-bis(2,2,2-trifluoroethyl)1H-benzimidazole-5-carboxamide], the Ki in assay [1] is roughly 33 nM; in assay [2] it was roughly 34 nM.

(Values after patent publication US7244850B2, “Benzimidazole derivatives, compositions containing them, preparation thereof and uses thereof” (AstraZeneca AB, priority 2003, dated 2007).)
